This is an account of results in patent publication US11286268B1, “EIF4E-inhibiting compounds and methods” (EFFECTOR THERAPEUTICS, INC., priority 2019, dated 2022).

The assay concerns the target recombinant eIF4E (Homo sapiens (Human), UniProt P06730). Briefly: Fluorescence polarization competition assay for eIF4E binding potency. The procedure, abridged:
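Competition of test compound against 20 nM EDA-m^7GDP-ATTO-550 for 75 nM recombinant eIF4E, pre-incubated 5 min, in 20 mM Tris pH 7.5, 100 mM NaCl, 1 mM DTT, 0.02% Tween-20, 1% DMSO. Equilibrated 30 min at room temperature, dark; fluorescence polarization read. IC50 from 8-point, 3-fold dilution series.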

[1] abbreviates: fluorescence polarization competition, 75 nM recombinant eIF4E, 20 nM EDA-m7GDP-ATTO-550, IC50 class, read-out: elF4E FP.
Where [2] appears, read: inhibition of eIF4E/EDA-m7GDP-ATTO-550 binding by 50%, Table 4B calculated values, read-out: IC50.
[3] abbreviates: inhibition of eIF4E/EDA-m7GDP-ATTO-550 binding, calculated IC50 values, Table 4B, read-out: IC50.

Like-named read-outs stand apart in the source and are kept apart here.

Chain of recombinant eIF4E (P06730 whole entry): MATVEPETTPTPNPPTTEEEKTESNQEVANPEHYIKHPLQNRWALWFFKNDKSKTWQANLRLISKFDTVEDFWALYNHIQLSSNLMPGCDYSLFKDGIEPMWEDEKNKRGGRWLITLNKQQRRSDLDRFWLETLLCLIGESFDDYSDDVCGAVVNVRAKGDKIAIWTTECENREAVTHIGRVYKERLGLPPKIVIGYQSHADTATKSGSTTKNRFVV

On to `N#Cc1cc(C(F)(F)F)cc2nc(CF)n(CCOc3ccc(Cl)cc3-c3ccnc4c(C(=O)O)csc34)c(=O)c12` [compound 181], for which the IC50 by setting is: under setting [1], 50 to 1000 nM; under setting [2], 62.3 nM.

For `Cc1cc(-c2cc(Cl)ccc2OCCn2c(C)nc3cnc(CCF)c(C#N)c3c2=O)c2scc(C(=O)O)c2n1` [compound 1064], the IC50 by setting is: under setting [1], below 50 nM; under setting [2], 16.2 nM.

On to `Cc1nc2cnc(N(C)C3COC3)c(C#N)c2c(=O)n1CC#Cc1ccc(Cl)cc1-c1ccnc2c(C(=O)O)csc12` [compound 1534], for which the IC50 under setting [3] is 15.8 nM.

As to `N#Cc1cc2c(=O)n(CCOc3ccc(Cl)cc3-c3ccc(C(=O)O)s3)cnc2cn1` [compound 53], the IC50 was 50 to 1000 nM under setting [1] and 931 nM under setting [2].

Consider `Cc1sc2c(-c3cc(Cl)ccc3OCCn3c(C)nc4cc(C(F)(F)F)c(N5CCN(C)CC5=O)c(C#N)c4c3=O)ccnc2c1C(=O)O` [compound 1272], for which, under setting [3], the IC50 is 28.1 nM.

`Cc1nc2cc(Cl)c(Cl)c(C#N)c2c(=O)n1CCOc1ccc(Cl)cc1-c1ccnc2c(C(=O)O)csc12` [compound 207]: the IC50 by setting is: under setting [1], below 50 nM; under setting [2], 21.3 nM.

For `Cc1nc2cc(C(F)(F)F)c(CN3CCN(C)CC3)c(C#N)c2c(=O)n1CCOc1ccc(Cl)cc1-c1ccnc2c(C(=O)O)csc12` [compound 502], the IC50 is below 50 nM under setting [1] and 38.4 nM under setting [2].

Regarding `Cc1nc2cnc(N3CCN(C4CC(F)(F)C4)CC3)c(C#N)c2c(=O)n1CC#Cc1ccc(Cl)cc1-c1ccnc2c(C(=O)O)csc12` [compound 1355], the IC50 under setting [3] is 24.8 nM.

`Cc1nc2cnc(N(C)C3CCN(C4CC(F)(F)C4)CC3)c(C#N)c2c(=O)n1CCOc1ccc(Cl)cc1-c1ccnc2c(C(=O)O)csc12` [compound 1477]: the IC50 under setting [3] is 18.1 nM.

Regarding `Cc1nc2cnc(N(C)C3CCN(C4(C(F)F)CC4)CC3)c(C#N)c2c(=O)n1CC#Cc1ccc(Cl)cc1-c1ccnc2c(C(=O)O)csc12` [compound 1522], the IC50 under setting [3] is 17.7 nM.

For `Cc1nc2cc(CN(C)C)c(F)c(C#N)c2c(=O)n1CCOc1ccc(Cl)cc1-c1ccnc2c(C(=O)O)csc12` [compound 517], the IC50 is, setting by setting: under setting [1], below 50 nM; under setting [2], 35.7 nM.

`Cc1nc2cc(C(F)(F)F)c(CN3CCOCC3)c(C#N)c2c(=O)n1CCOc1ccc(Cl)cc1-c1ccnc2c(C(=O)O)csc12` [compound 501]: the IC50 is below 50 nM under setting [1] and 25.7 nM under setting [2].

On to `Cc1cc(-c2cc(Cl)ccc2OCCn2c(C)nc3cc(C(F)(F)F)c(-c4ccc(C)c(C)n4)c(C#N)c3c2=O)c2scc(C(=O)O)c2n1` [compound 904], for which the IC50 was below 50 nM under setting [1] and 4.19 nM under setting [2].

For `N#Cc1cncc2nc(C(F)F)n(CCOc3ccc(Cl)cc3-c3cccc(C(=O)O)c3)c(=O)c12` [compound 1983], under setting [3], the IC50 was 82.6 nM.

Take `Cc1cc(-c2cc(Cl)ccc2OCCn2c(C)nc3cc(C(F)(F)F)c(-c4cnc(Cl)cc4F)c(C#N)c3c2=O)c2scc(C(=O)O)c2n1` [compound 1384]: under setting [3], the IC50 is 6.86 nM.

With `Cc1cc(-c2cc(Cl)ccc2OCCn2c(C)nc3c(OC(F)F)ncc(C#N)c3c2=O)c2scc(C(=O)O)c2n1` [compound 604], the IC50 was 50 to 1000 nM under setting [1] and 70.7 nM under setting [2].

On to `Cc1nc2cc(C#N)cc(C#N)c2c(=O)n1C/C=C/c1ccc(Cl)cc1-c1ccnc2c(C(=O)O)csc12` [compound 286], for which the IC50 reads like this: under setting [1], 50 to 1000 nM; under setting [2], 183 nM.

As for `Cc1nc2cc(C(F)(F)F)c(N3CCN(CCF)CC3)c(C#N)c2c(=O)n1CCOc1ccc(Cl)cc1-c1ccnc2c(C(=O)O)csc12` [compound 655], the IC50 is below 50 nM under setting [1] and 13.5 nM under setting [2].

On to `Cc1nc2cnc(N3CCN(CC4(F)CC4)CC3)c(C#N)c2c(=O)n1CCOc1ccc(Cl)cc1-c1ccnc2c(C(=O)O)csc12` [compound 1470], for which, under setting [3], the IC50 is 30.8 nM.

With `Cc1cc(-c2cc(Cl)ccc2OCCn2c(C)nc3cc(C(F)(F)F)c(-c4ccccn4)cc3c2=O)c2scc(C(=O)O)c2n1` [compound 426], the IC50 runs as follows: under setting [1], below 50 nM; under setting [2], 41.2 nM.

As to `Cc1nc2cnc(N3CCN(C(C)C(F)F)CC3)c(C#N)c2c(=O)n1CCOc1ccc(Cl)cc1-c1ccnc2c(C(=O)O)csc12` (stereo not shown) [compound 1312], the IC50 under setting [3] is 8.29 nM.

On to `Cc1nc2cc(C(F)(F)F)c(N3CCN(C)CC3)c(C#N)c2c(=O)n1CCOc1ccc(Cl)cc1-c1ccnc2c(P(=O)(O)O)csc12` [compound 1613], for which the IC50 under setting [3] is 16.1 nM.

As for `Cc1nc2cnc(N3CC4(CC(N(C)C5CC5)C4)C3)c(C#N)c2c(=O)n1CC#Cc1ccc(Cl)cc1-c1ccnc2c(C(=O)O)csc12` [compound 830], the IC50 is, setting by setting: under setting [1], below 50 nM; under setting [2], 12.8 nM.

Take `Cc1cc(-c2cc(Cl)ccc2OCCn2c(C)nc3c(-c4ccccc4)nc(N4CCC4)c(C#N)c3c2=O)c2scc(C(=O)O)c2n1` [compound 1008]: the IC50 under setting [1] was below 50 nM and the IC50 under setting [2] is 15.3 nM.

In the case of `COc1cc(-c2cc(Cl)ccc2OCCn2c(C)nc3cc(C(F)(F)F)c(CN4CCN(C)CC4)c(C#N)c3c2=O)c2scc(C(=O)O)c2n1` [compound 638], the IC50 reads like this: under setting [1], below 50 nM; under setting [2], 4.46 nM.

For `CCN(c1ncc2nc(C)n(CC#Cc3ccc(Cl)cc3-c3ccnc4c(C(=O)NS(=O)(=O)C(C)C)csc34)c(=O)c2c1C#N)C1CCN(C2COC2)CC1` [compound 1746], under setting [3], the IC50 is 10.8 nM.

Turning to `Cc1nc2cnc(N(C)C3CCN(C4CC(F)(F)C4)CC3)c(C#N)c2c(=O)n1CC#Cc1ccc(Cl)cc1-c1ccnc2c(C(=O)NS(=O)(=O)CC(C)(C)C#N)csc12` [compound 1827], the IC50 under setting [3] was 14.8 nM.

In the case of `COc1sc2c(-c3cc(Cl)ccc3OCCn3c(C)nc4cnc(C5CC5)c(C#N)c4c3=O)ccnc2c1C(=O)O` [compound 772], the IC50 was below 50 nM under setting [1] and 14.1 nM under setting [2].

As to `Cc1cc(-c2cc(Cl)ccc2OCCn2c(C)nc3c(C)nc(-c4cccc(Cl)c4)c(C#N)c3c2=O)c2scc(C(=O)O)c2n1` [compound 481], the IC50 under setting [1] is below 50 nM and the IC50 under setting [2] was 10.5 nM.

Take `Cc1sc2c(-c3cc(Cl)ccc3OCCn3c(C)nc4cc(C(F)(F)F)c(Cl)c(C#N)c4c3=O)ccnc2c1C(=O)O` [compound 555]: the IC50 under setting [1] was below 50 nM and the IC50 under setting [2] is 10.8 nM.

As to `Cc1cc(-c2cc(Cl)ccc2OCCn2c(C)nc3cnc(N4CCN(C)CC4)cc3c2=O)c2scc(C(=O)O)c2n1` [compound 810], the IC50 under setting [1] is below 50 nM.

Turning to `Cc1cc(-c2cc(Cl)ccc2OCCn2c(C)nc3cnc(N4C[C@H]5C[C@@H](C4)N5C)c(C#N)c3c2=O)c2sc(C)c(C(=O)O)c2n1` [compound 1202], the IC50 under setting [1] is below 50 nM and the IC50 under setting [3] is 19.7 nM.

For the molecule `Cc1cc(-c2cc(Cl)ccc2OCCn2c(C)nc3cc(C(F)(F)F)c(N4CCN(C)CC4)c(C#N)c3c2=O)c2sccc2n1` [compound 836], the IC50 reads like this: under setting [1], below 50 nM; under setting [2], 2.33 nM.

Consider `Cc1cc(-c2cc(Cl)ccc2OCCn2c(C)nc3ccc(N4CCC(O)C4)c(C#N)c3c2=O)c2scc(C(=O)O)c2n1` (stereo not shown) [compound 1280], for which, under setting [3], the IC50 was 4.26 nM.

`N#Cc1ncc(CCOc2ccc(Cl)cc2-c2cccc(C(=O)O)c2)c2c(=O)[nH]c(Nc3ccccc3)nc12` [compound 179]: the IC50 under setting [1] is below 50 nM and the IC50 under setting [2] was 20.6 nM.

`Cc1nc2cnc(N3CCN(C4(CC(F)F)CC4)CC3)c(C#N)c2c(=O)n1CCOc1ccc(Cl)cc1-c1ccnc2c(C(=O)O)csc12` [compound 1643]: under setting [3], the IC50 was 18.8 nM.

Consider `Cc1nc2c(C(C)C)nc(N3CCN(CCF)CC3)c(C#N)c2c(=O)n1CCOc1ccc(Cl)cc1-c1ccnc2c(C(=O)O)csc12` [compound 183], for which the IC50 was 50 to 1000 nM under setting [1] and 50.2 nM under setting [2].

Consider `Cc1nc2cc(C(F)(F)F)c(N3CCN(C)C(CO)C3)c(C#N)c2c(=O)n1CCOc1ccc(Cl)cc1-c1ccnc2c(C(=O)O)csc12` (stereo not shown) [compound 1261], for which the IC50 under setting [3] is 33.6 nM.

Turning to `CCS(=O)(=O)NC(=O)c1csc2c(-c3cc(Cl)ccc3C#CCn3c(C)nc4cnc(N(C)C5CCN(C6CC(F)(F)C6)CC5)c(C#N)c4c3=O)ccnc12` [compound 1807], the IC50 under setting [3] is 10.4 nM.

On to `Cc1cc(-c2cc(Cl)ccc2OCCn2c(C)nc3cc(C(F)(F)F)c(-n4ccnc4)c(C#N)c3c2=O)c2scc(C(=O)O)c2n1` [compound 632], for which the IC50 is, setting by setting: under setting [1], below 50 nM; under setting [2], 12 nM.

Take `Cc1cc(-c2cc(Cl)ccc2OCCn2c(C)nc3cc(S(C)(=O)=O)c(N4CCN(C)CC4)c(C#N)c3c2=O)c2scc(C(=O)O)c2n1` [compound 1295]: the IC50 under setting [3] was 13.4 nM.

Take `Cc1nc2cc3c(c(C#N)c2c(=O)n1CCOc1ccc(Cl)cc1-c1ccnc2c(C(=O)O)csc12)S(=O)(=O)N(C)C3` [compound 1953]: the IC50 under setting [3] was 89.3 nM.

For the molecule `O=C(O)c1cccc(-c2cc(Cl)ccc2OCCn2ccc3ccccc3c2=O)c1` [compound 9], the IC50 reads like this: under setting [1], above 1000 nM; under setting [2], above 30000 nM.

For the molecule `Cc1nc2cnc(N(C)C3CCN(C4COC4)CC3)c(C#N)c2c(=O)n1CC#Cc1ccc(Cl)cc1-c1ccnc2c(C(=O)NS(C)(=O)=O)csc12` [compound 1561], the IC50 under setting [3] is 13 nM.

In the case of `Cc1nc2c(N3C4CCC3CN(C)C4)ncc(C#N)c2c(=O)n1CCOc1ccc(Cl)cc1-c1ccnc2c(C(=O)O)csc12` [compound 857], the IC50 is below 50 nM under setting [1] and 4.62 nM under setting [2].

In the case of `Cc1sc2c(-c3cc(Cl)ccc3C#CCn3c(C)nc4cc(C(F)(F)F)c(CN5CCN(C)CC5)c(C#N)c4c3=O)ccnc2c1C(=O)O` [compound 643], the IC50 under setting [1] was below 50 nM and the IC50 under setting [2] was 0.832 nM.

Regarding `CCN(c1ncc2nc(C)n(CC#Cc3ccc(Cl)cc3-c3ccnc4c(C(=O)NS(=O)(=O)c5cccnc5)csc34)c(=O)c2c1C#N)C1CCN(C2CC(F)(F)C2)CC1` [compound 1839], the IC50 under setting [3] was 34.5 nM.
